This note sets out measurements from patent US20070015733A1, “Aryl Phosphate Derivatives of d4T having Activity Against Resistant HIV Strains” (Parker Hughes Institute, priority 1998, published 2007).

Series [1] deals with HIV-1 A17 (Y181C mutant, NNRTI-resistant). As to the kind of experiment: p24 antigen assay, A17 strain in PBMC. As to conditions: PBMNC, p24; read-out: IC50 A17. In kind it is cell-based. An excerpt: (§1) In vitro assays of anti-HIV-1 activity.
(§2) Viruses. 20 primary clinical isolates with genotypic and/or phenotypic NRTI-resistance (isolated in the laboratory of D. Richman) and 10 clinical isolates with phenotypic stavudine (d4T) resistance (obtained through the AIDS Research and Reference Reagent Program, NIAID) were used in the current study. The HIV-1 strains HTLVIIIB (wildtype RT, NRTI-sensitive, NNRTI-sensitive), A17 (Y181 C mutant, NNRTI-resistant), A17-variant (Y181C+K103N mutant, NNRTI-resistant), and RT-MDR (M41 L, V106N, T215Y; NRTI-resistant, NNRTI-resistant) were also obtained from the AIDS Research and Reference Reagent Program, NIAID.
(§3) Antiviral susceptibility assays.

Series [2] concerns HIV-1 HTLVIIIB
As to the kind of experiment: microbe, parasite or virus in culture. The note with it: read-out: IC50 HTLVIIIB; PBMNC, p24. How it is done: In vitro assays of anti-HIV-1 activity. Normal human peripheral blood mononuclear cells (PBMNC) from HIV-negative donors were cultured 72 hours in RPMI 1640 supplemented with 20% (v/v) heat-inactivated fetal bovine serum (FBS), 3% interleukin-2, 2 mM L-glutamine, 25 mM HEPES, 2 g/L NaHCO3, […], and […] prior to exposure to HIV-1 at a multiplicity of infection (MOI) of 0.1 during a 1 hour adsorption period at 37° C. in a humidified 5% CO2 atmosphere. Subsequently, cells were cultured in 96-well microtiter plates ([…]; 2×10^6 cells/mL) in the presence of various concentrations of d4T phosphoramidates and aliquots of culture supernatants were removed from the wells on the 7th day after infection for p24 antigen assays, as previously described (Uckun et al., 1998, Antimicrobial Agents and Chem., 42(2):383-388). The applied p24 enzyme immunoassay (EIA) was the unmodified kinetic assay commercially available from Coulter Corporation/Immunotech, Inc. (Westbrooke, Me.), which utilizes a murine mAb to HIV core protein coated onto microwell strips to which the antigen present in the test culture supernatant samples binds. Percent viral inhibition was calculated by comparing the p24 values from untreated infected cells (i.e., virus controls).
The anti-HIV activity of the compounds was examined by evaluating their ability to inhibit HIV replication in peripheral blood mononuclear cells using previously described procedures (Uckun et al., 1998, Antimicrobial Agents and Chem., 42(2):383-388). Percent inhibition of viral replication was calculated by comparing the p24 antigen levels from the test substance-treated infected cells with those from vehicle-treated infected cells.
Antiviral susceptibility assays. Phenotypic drug susceptibility studies of HIV-1 isolates and strains were performed by measuring the production of the p24 gag protein in peripheral blood mononuclear cells (PBMC) from seronegative healthy volunteers in the presence of increasing concentrations of the anti-HIV agent using the quantitative Coulter HIV-1 p24 antigen ezyme immunoassay (EIA) and HIV-1 p24 Antigen Kinetic Standard (Beckman Coulter), as previously described (Uckun, 1998, Antimicrobial Agents and Chemotherapy 37(4): 835-38). Informed consent was obtained from the blood donors according to DHHS guidelines using consent forms approved by the Institutional Review Board. In brief, PBMC were cultured for 72 h in RPMI 1640 medium (Gibco) supplemented with 20% (vol/vol) heat-inactivated fetal bovine serum, 5% human interleukin-2 (Zeptometrix), 2 mM L-glutamine, 25 mM HEPES, 2 g/L NaHCO3, 100 U/ml penicillin/streptomycin (Gibco), 50 μg/ml gentamicin (Gibco), and 5 μg/ml phytohemagglutinin-P (PHA-P) (Sigma) for 24-72 hours prior to exposure to HIV at a multiplicity of infection of 0.001-0.1 during a 1-h adsorbtion period at 37±1° C. in a humidified 5-7% CO2 atmosphere. Subsequently, cells were cultured in 96-well microtiter plates (100 μl/well; 2×10^6 cells/ml, triplicate wells) in the presence of the anti-HIV agents at 6-7 different concentrations ranging from 0.0001 μM to 100 μM, and 25 μL aliquots of culture supernatants were removed from the wells on day 6 after infection for p24 EIA, as previously described (Uckun, 1998, Antimicrobial Agents and Chemotherapy, 37(4):835-38). Controls included uninfected and untreated cells (background control) and infected but untreated (virus control) cells. The p24 EIA utilizes a murine monoclonal antibody to HIV core protein used to coat microwell strips to which the antigen present in the test culture supernatant samples binds. Percent inhibition of viral replication was calculated by comparing the p24 values from the test substance-treated infected cells with p24 values from untreated infected cells (i.e., virus controls). The IC50 values were determined using the Statview statistics program (SAS Institute, Inc.).

The nature of series [3]: Alkaline chemical hydrolysis rate (NaOH/methanol, HPLC). The note with it: alkali hydrolysis. In kind it is physicochemical. How it is done:
All chemicals were purchased from Aldrich (Milwaukee, Wis.), with the exception of d4T which was synthesized in-house. All syntheses were performed under a nitrogen atmosphere. ^1H, ^13C, and ^31P NMR were obtained on a Varian Mercury 300 instrument at ambient temperature in CDCl3. FT-IR spectra were recorded on a Nicolet Protege 460 spectrometer. MALDI-TOF mass spectra were obtained by using a Finnigan MAT 95 system. UV spectra were recorded by using a Beckmann UV-VIS spectrophotometer (Model 3DU 74000) with a cell path length of 1 cm. HPLC purification was achieved by using a reverse-phase Lichrospher column (250×4 mm, Hewlett-Packard, RP-18, Cat # 79925) and an isocratic flow (1 ml/minute) consisting of water (70%) and acetonitrile (30%). The alkaline chemical hydrolysis was conducted at room temperature with sodium hydroxide (1 ml of 0.05N) and 3 ml of methanol solution containing 10 mg of the substrates in a Teflon lined reaction vial. […] The disappearance of the starting material was monitored as a function of time. […]
Statistical Analysis. The IC50 values were calculated from each set of triplicate wells using nonlinear regression modeling of the exponential form of the linearized equation. […] Hydrolysis rates were determined by fitting single exponential decay equations to the disappearance of the compound in alkali conditions. […]

Series [4] in a line: Octanol/water partition coefficient, shake flask method. In kind it is physicochemical. As to the method: Partition Coefficients. The octanol/water partition coefficient was determined by the shake flask method. The phosphoramidate analogs were added to 2 ml of water and 2 ml of octanol in a glass vial. The mixture was shaken for 4 hours at room temperature. The two phases were carefully separated and filtered through a Millipore filter and analyzed by HPLC. The partition coefficient was calculated using the ratio of the area under the curve for octanol and water respectively.

In series [5] the test system is HIV-1 RT-MDR (NRTI-resistant, NNRTI-resistant). As to the kind of experiment: p24 antigen assay, RT-MDR strain. In kind it is cell-based. The note with it: p24; read-out: IC50 RTMDR.
Series [6] concerns HIV-1 A17-variant (Y181C+K103N mutant, NNRTI-resistant). As to the kind of experiment: p24 antigen assay, A17-variant strain in PBMC. In kind it is cell-based. The note with it: PBMNC, p24; read-out: IC50 A17V.
Text: as §1, §2, §3

Usually IC50 stands for the midpoint of a concentration-inhibition curve. Consider `COC(=O)C(C)NP(=O)(OCC1C=CC(n2cc(C)c(=O)[nH]c2=O)O1)Oc1cccc(Br)c1` (centres unmarked) [Compound 9, 5′-[3-Bromophenylmethoxyalaninylphosphate]-2′,3′-didehydro-3′-deoxythymidine], for which the IC50 in series [1] was 42 ± 24 nM; in series [2], 2 ± 2 nM; in series [5], 493 ± 285 nM. Also, the “Hydrolysis Rate” value in series [3] was determined as 0.0338 min⁻¹. Further, the “Partition Coefficient (log P)” value in series [4] is 1.12.
On to `COC(=O)C(C)NP(=O)(OCC1C=CC(n2cc(C)c(=O)[nH]c2=O)O1)Oc1ccccc1Cl` (centres unmarked) [Compound 13, 5′-[2-Chlorophenylmethoxyalaninylphosphate]-2′,3′-didehydro-3′-deoxythymidine], for which the IC50 in series [1] came out at 34 ± 20 nM; in series [2], 3 ± 1 nM; in series [5] it was 187 ± 108 nM; in series [6], 15 ± 8 nM. Besides, the “Hydrolysis Rate” value in series [3] is 0.0370 min⁻¹. The “Partition Coefficient (log P)” value in series [4] stood at 0.84.
